A short description of this series: GSNO stability as a function of pH. The series is classed as physicochemical. Particulars: alkaline conditions. As for the experimental part: The stability of the formulations was tested via UV/Vis analysis and/or via the electrochemical NOA.

On to `N[C@@H](CCC(=O)N[C@@H](CSN=O)C(=O)NCC(=O)O)C(=O)O` [GSNO, S-nitrosoglutathione], for which the “pH above which GSNO instability and hence NO generation begins to increase” value was “above 8.5”.

(Values after US12667686B2, “Nitric oxide generating systems” (NOTA Laboratories, LLC, priority 2019, dated 2026).)
